Each structure is given as a SMILES string.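 1) Cells in 96-well plates. 2) Compound, 48 h, 5 concentrations. 3) Linear interpolation between surrounding doses. 4) Unreached endpoint = highest concentration. At the GI50, growth is halved. Definition used: TGI = concentration required for complete inhibition of growth.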 Where a SMILES comes first, the peptide text is derived from it. [ ]: non-standard residue; d: D form. The star is where a group is joined. Bn2Val = CC(C)[C@@H](C(=O)*)N(Cc1ccccc1)Cc1ccccc1; NH(4-Cl-benzyl) = Clc1ccc(CN*)cc1; NMeV = CN[C@H](C(=O)O)C(C)C; dNMeA = CN[C@H](C)C(=O)O

Some test systems named below: RXF 393 renal; M14 melanoma; NCI-H226 lung; KM12 colon; HT29 colon; HOP-92 NSCLC; HL-60(TB) leukemia; SN12C renal; IGROV1 ovarian; OVCAR-5 ovarian.
Holding throughout (assay): inhibition of tumour cell growth, NCI panel, 48 h

For the compound `COc1cnc2c(c1)C(=O)c1c-2n(CCCNCCO)c(=O)c2ccncc12`, the GI50 in the assay on RXF 393 renal is 1200 nM; in the assay on M14 melanoma it was 1930 nM; with NCI-H226 lung, 601 nM; in the assay with KM12 colon, 1510 nM; in the assay on HT29 colon it was 0.633 µM; with HOP-92 NSCLC, 1400 nM. Besides, the GI50 in the assay on HL-60(TB) leukemia was 2.74 µM; in the assay with SN12C renal, 1080 nM; in the assay with IGROV1 ovarian, 2650 nM; with OVCAR-5 ovarian, 2.74 µM. Further, the TGI with RXF 393 renal was 3.48 µM; with M14 melanoma, 7.16 µM; in the assay with NCI-H226 lung, 3.65 µM; with KM12 colon it was 11.7 µM; with HT29 colon it was 16.7 µM; in the assay with HOP-92 NSCLC it was 6.31 µM. In addition, the TGI was 11.4 µM in the assay with HL-60(TB) leukemia, 13.6 µM in the assay on SN12C renal, more than 100 µM in the assay with IGROV1 ovarian and 20.5 µM with OVCAR-5 ovarian.

Take `O=C(N/N=C/C=C/c1ccccc1)c1ccccc1Nc1ccccc1C(=O)N/N=C/C=C/c1ccccc1`: the TGI with RXF 393 renal, in the assay with M14 melanoma, in the assay with NCI-H226 lung, in the assay on KM12 colon, in the assay with HT29 colon and in the assay on HOP-92 NSCLC was more than 100 µM each time. The TGI with HL-60(TB) leukemia, in the assay on SN12C renal, in the assay with IGROV1 ovarian and with OVCAR-5 ovarian was more than 100 µM each time.

For the compound `CC(Oc1ccccc1Cl)C(=O)NN1C(=O)CSC1c1ccccc1` (stereo not drawn), the TGI in the assay with RXF 393 renal, in the assay on M14 melanoma, in the assay on NCI-H226 lung, in the assay with KM12 colon, in the assay on HT29 colon and in the assay on HOP-92 NSCLC was more than 100 µM each time. For the same compound, the TGI is 83.7 µM in the assay with HL-60(TB) leukemia, more than 100 µM in the assay with SN12C renal, more than 100 µM in the assay on IGROV1 ovarian and more than 100 µM with OVCAR-5 ovarian.

In the case of `c1ccc(CN2CCC(Nc3ccccc3)(c3nnnn3Cc3ccccc3)CC2)cc1`, the TGI with RXF 393 renal was 73.8 µM; in the assay on M14 melanoma, 38.5 µM; in the assay with NCI-H226 lung, more than 100 µM; in the assay on KM12 colon, 33.3 µM; with HT29 colon, 24.2 µM; with HOP-92 NSCLC, 34.5 µM. Moreover, the TGI was 25.9 µM in the assay on HL-60(TB) leukemia, more than 100 µM in the assay with SN12C renal, more than 100 µM with IGROV1 ovarian and 76.1 µM with OVCAR-5 ovarian.

With `N#Cc1cc2c(n(C3OC(CO)C(O)C(O)C3O)c1=S)CCCCCC2` (stereo not drawn), the TGI in the assay on RXF 393 renal, in the assay on M14 melanoma, with NCI-H226 lung, in the assay with KM12 colon, with HT29 colon and in the assay with HOP-92 NSCLC was more than 100 µM throughout. In addition, the TGI in the assay on HL-60(TB) leukemia, in the assay on SN12C renal, with IGROV1 ovarian and in the assay on OVCAR-5 ovarian was more than 100 µM each time.

Consider `NN=C(CC(O)(C(F)(F)Cl)C(F)(F)Cl)CC(O)(C(F)(F)Cl)C(F)(F)Cl`, for which the TGI in the assay on RXF 393 renal, in the assay with M14 melanoma, with NCI-H226 lung, in the assay on KM12 colon, in the assay on HT29 colon and in the assay with HOP-92 NSCLC was more than 10 µM in each case. Moreover, the TGI with HL-60(TB) leukemia, in the assay with SN12C renal, in the assay on IGROV1 ovarian and with OVCAR-5 ovarian was more than 10 µM throughout.

As for `O=C(Nc1ccccc1C(=O)NCc1ccccc1)/C(=C/c1ccccc1)NC(=O)c1ccccc1`, the TGI with RXF 393 renal, with M14 melanoma, in the assay on NCI-H226 lung, in the assay with KM12 colon, with HT29 colon and in the assay with HOP-92 NSCLC was more than 100 µM in each case. Also, the TGI with HL-60(TB) leukemia, with SN12C renal, in the assay on IGROV1 ovarian and with OVCAR-5 ovarian was more than 100 µM each time.

`C=C=C(CC(CC(=C)Br)(C(=O)OC)C(=O)OC)S(=O)(=O)c1ccccc1`: the TGI with RXF 393 renal came to 3.99 µM; in the assay with M14 melanoma it was 4.3 µM; in the assay with NCI-H226 lung, 12.2 µM; with KM12 colon, 5.81 µM; with HT29 colon it was 2.95 µM; in the assay on HOP-92 NSCLC it was 3.97 µM. Further, the TGI in the assay on HL-60(TB) leukemia is more than 100 µM; with SN12C renal it was 3.13 µM; with IGROV1 ovarian, 5.52 µM; in the assay with OVCAR-5 ovarian it was 3.43 µM.

On to `CC(C)(C)CC(C)(C)c1cc(O)c(O)c(CN2CCCCC2)c1`, for which the TGI came to 29.2 µM in the assay with RXF 393 renal; 29 µM in the assay with M14 melanoma; 32 µM with NCI-H226 lung; 40.4 µM in the assay with KM12 colon; 19.7 µM in the assay on HT29 colon; 35 µM with HOP-92 NSCLC. The TGI with HL-60(TB) leukemia is 31.6 µM; in the assay on SN12C renal, 30.3 µM; with IGROV1 ovarian it was 34.6 µM; with OVCAR-5 ovarian, 31.8 µM.

Turning to `CC(C)/C(Cl)=N\OC(NC(=O)P(=O)(c1ccccc1)c1ccccc1)(C(F)(F)F)C(F)(F)F`, the TGI in the assay on RXF 393 renal amounted to 34 µM; in the assay on M14 melanoma, 15.8 µM; in the assay on NCI-H226 lung, 38.4 µM; in the assay on KM12 colon it was 23.1 µM; with HT29 colon it was 59.1 µM; with HOP-92 NSCLC, 12.8 µM. Moreover, the TGI worked out at 30.9 µM with HL-60(TB) leukemia, 26.6 µM in the assay with SN12C renal, 28.4 µM with IGROV1 ovarian and 48.3 µM with OVCAR-5 ovarian.

`CN1C(=O)C(O)C[C@@H]1c1ccccc1` (stereo partly drawn): the TGI with RXF 393 renal, in the assay with M14 melanoma, in the assay with NCI-H226 lung, in the assay with KM12 colon, with HT29 colon and with HOP-92 NSCLC was more than 100 µM throughout. For the same compound, the TGI in the assay with HL-60(TB) leukemia, in the assay on SN12C renal, with IGROV1 ovarian and in the assay on OVCAR-5 ovarian was more than 100 µM throughout.

On to `O=c1[nH]n(Cc2ccccc2)c2ccc([N+](=O)[O-])cc12`, for which the TGI with RXF 393 renal, with M14 melanoma, with NCI-H226 lung, in the assay on KM12 colon, with HT29 colon and with HOP-92 NSCLC was more than 100 µM in each case. In addition, the TGI with HL-60(TB) leukemia, in the assay with SN12C renal, in the assay on IGROV1 ovarian and in the assay on OVCAR-5 ovarian was more than 100 µM in each case.

As for `Cc1cc2c([nH]c3ccccc32)c(O)c1-c1c(C)cc2c([nH]c3ccccc32)c1O`, the TGI in the assay on RXF 393 renal is 23.1 µM; with M14 melanoma, 29.8 µM; with NCI-H226 lung, 36.5 µM; in the assay on KM12 colon it was 21.7 µM; in the assay on HT29 colon, 19.5 µM; with HOP-92 NSCLC, 30.7 µM. In addition, the TGI in the assay with HL-60(TB) leukemia was determined as 55 µM; in the assay on SN12C renal it was 6.44 µM; in the assay on IGROV1 ovarian, 25.2 µM; in the assay with OVCAR-5 ovarian it was 29 µM. The GI50 in the assay with HT29 colon is 6.04 µM; in the assay on HL-60(TB) leukemia it was 32.9 µM; with OVCAR-5 ovarian, 15 µM.

Turning to `CCOC(=O)c1cc(C)nc2c1c(=O)n(-c1ccccc1)c(=O)n2CCCCN1CCN(c2ccccc2)CC1`, the TGI with RXF 393 renal, with M14 melanoma, with NCI-H226 lung, with KM12 colon, in the assay on HT29 colon and with HOP-92 NSCLC was more than 100 µM in each case. Further, the TGI with HL-60(TB) leukemia was 49.1 µM; with SN12C renal it was more than 100 µM; in the assay on IGROV1 ovarian, more than 100 µM; with OVCAR-5 ovarian it was more than 100 µM.

Take `Cc1nn(-c2ccccc2)c(C)c1/C=N/N=C1\S/C(=C\c2ccc(Cl)cc2)C(=O)N1c1ccccc1`: the TGI in the assay on RXF 393 renal was 84.3 µM; in the assay with M14 melanoma, more than 100 µM; in the assay on NCI-H226 lung, more than 100 µM; in the assay with KM12 colon, more than 100 µM; in the assay on HT29 colon, more than 100 µM; with HOP-92 NSCLC it was more than 100 µM. The TGI in the assay with HL-60(TB) leukemia was 24.4 µM; in the assay on SN12C renal, more than 100 µM; with IGROV1 ovarian it was more than 100 µM; with OVCAR-5 ovarian, more than 100 µM.

`CCOC(=O)Nn1c(CC#N)nnc1Cc1ccccc1`: the TGI in the assay on RXF 393 renal, with M14 melanoma, in the assay with NCI-H226 lung, with KM12 colon, in the assay on HT29 colon and in the assay with HOP-92 NSCLC was more than 100 µM each time. For the same compound, the TGI in the assay with HL-60(TB) leukemia, in the assay with SN12C renal, in the assay on IGROV1 ovarian and in the assay on OVCAR-5 ovarian was more than 100 µM throughout.

In the case of `NCC(O)CSCc1ccc(Cl)cc1` (stereo not drawn), the TGI in the assay with RXF 393 renal, in the assay with M14 melanoma, with NCI-H226 lung, in the assay on KM12 colon, in the assay with HT29 colon and in the assay with HOP-92 NSCLC was more than 100 µM each time. In addition, the TGI in the assay on HL-60(TB) leukemia, in the assay with SN12C renal, with IGROV1 ovarian and in the assay with OVCAR-5 ovarian was more than 100 µM throughout.

With `COc1ccc(C(SC2C(O)C(CO)OC2n2ccc(=O)[nH]c2=O)(c2ccccc2)c2ccc(OC)cc2)cc1` (stereo not drawn), the TGI is 32.4 µM with RXF 393 renal; 25.8 µM in the assay on M14 melanoma; 31.9 µM in the assay with NCI-H226 lung; 39.2 µM in the assay on KM12 colon; 35.6 µM with HT29 colon; 29.7 µM with HOP-92 NSCLC. For the same compound, the TGI with HL-60(TB) leukemia was found to be 68.4 µM; with SN12C renal, 32.4 µM; in the assay with IGROV1 ovarian, 40.9 µM; in the assay with OVCAR-5 ovarian it was 39.7 µM.

Consider `CC(C)=CCNc1nc(Cl)nc2nc[nH]c12`, for which the TGI in the assay with RXF 393 renal is 62 µM; in the assay on M14 melanoma, more than 100 µM; in the assay on NCI-H226 lung, more than 100 µM; in the assay with KM12 colon it was more than 100 µM; with HT29 colon, more than 100 µM; in the assay with HOP-92 NSCLC it was 87.5 µM. The TGI with HL-60(TB) leukemia, with SN12C renal, in the assay with IGROV1 ovarian and with OVCAR-5 ovarian was more than 100 µM throughout.

As to `CC(C)(C)OC(=O)NCC(CNC(=O)OC(C)(C)C)c1nc(C(N)=O)cs1`, the TGI with RXF 393 renal, with M14 melanoma, in the assay with NCI-H226 lung, in the assay with KM12 colon, with HT29 colon and in the assay with HOP-92 NSCLC was more than 100 µM each time. In addition, the TGI in the assay on HL-60(TB) leukemia, in the assay on SN12C renal, in the assay with IGROV1 ovarian and in the assay on OVCAR-5 ovarian was more than 100 µM throughout.

On to `CC(C)[C@H](NC(=O)[C@H](C(C)C)N(Cc1ccccc1)Cc1ccccc1)C(=O)N(C)[C@H](C(=O)N1CCC[C@H]1C(=O)N(C)[C@H](C)C(=O)NCc1ccc(Cl)cc1)C(C)C` (Bn2Val-V[NMeV]P[dNMeA]-{NH(4-Cl-benzyl)}), for which the TGI is 6.27 µM in the assay with RXF 393 renal; 30.1 µM in the assay on M14 melanoma; 9.66 µM in the assay on NCI-H226 lung; more than 100 µM in the assay on KM12 colon; 3.54 µM with HT29 colon; 17.9 µM with HOP-92 NSCLC. For the same compound, the TGI in the assay with HL-60(TB) leukemia is 3.97 µM; with SN12C renal, 6.35 µM; in the assay on IGROV1 ovarian it was 8.3 µM; in the assay with OVCAR-5 ovarian it was more than 100 µM.

Values taken from PubChem BioAssay (NCI).
